Tests used:
ZafA target genes = test: RT-qPCR of ZafA target genes and genes not regulated by ZafA; type: cell-based, Aspergillus fumigatus; conditions: zinc-limiting conditions, 2 h; for expression of the ZafA target genes: 21 μg/ml ZAC307, 27 μg/ml ZAC989, 146 μg/ml EDTA, 10.6 μg/ml TPEN; for expression levels of the genes not regulated by ZafA: 21 μg/ml ZAC307, 27 μg/ml ZAC989
Method: A total of 1.5 × 10^6 conidia of the wild-type strain (AF14) were inoculated into 20 ml of 0.7× sRPMI, 0.05% Tween 20, and 1.2% ethanol dispensed into 100-ml culture flasks pretreated with an overnight wash in 2 mM EDTA (pH 8.0) to minimize the presence of metal traces, followed by a thorough washing with ultrapure Milli-Q water. The flasks were subsequently sterilized in an oven at 180°C. The cultures were incubated for 20 h at 37°C and 200 rpm before the following were added: (i) pure ethanol to a final concentration of 1.2% (vol/vol) (as a reference for the transcription profiles of all genes under zinc-limiting conditions), (ii) 1.2% ethanol plus a solution of ZnSO4 to a final concentration 20 μM zinc (as a reference for the transcription profiles of all genes under zinc-replete conditions following the zinc shift), (iii) 1.2% ethanol plus a solution of EDTA to a final concentration of 500 μM, (iv) 1.2% ethanol plus a solution of TPEN to a final concentration of 10.6 μg/ml, and (v) a 5 mM solution of each test compound (ZAC307 or ZAC989) dissolved in 80% ethanol to a final concentration of 75 μM and 1.2% ethanol (which correspond to 21 μg/ml and 27 μg/ml, respectively). After compound addition, cultures were incubated for 2 h at 37°C and 200 rpm and mycelia were harvested by filtration through filter paper, washed twice with sterile waterm and snap-frozen in liquid nitrogen. After grinding of the mycelia in the presence of liquid nitrogen, total RNA was extracted using an RNeasy plant minikit (74904; Qiagen) according to the manufacturer's instructions. RNA was eluted in 50 μl of RNase-free water. RNA integrity was verified on 0.8% agarose gels stained with ethidium bromide. RNA was stored at −80°C until use.
Total RNA concentration and quality were determined by UV spectrometry (NanoDrop ND1000 spectrophotometer; Thermo Fisher Scientific), and all samples were brought to a final concentration of 150 ng/μl. Total RNA (1.5 μg) was treated with RQ1 DNase I (M610; Promega) and subsequently assessed by conventional PCR for the complete absence of genomic DNA (gDNA). Subsequently, 1 μg of DNase-treated RNA was reversed transcribed using SuperScript II reverse transcriptase (18064-014; Invitrogen, Thermo Fisher Scientific), with random hexamers (11034731001; Roche Diagnostics) as primers. Prior to qPCRs, cDNA samples were diluted 1:3 in water, except in the case of reactions against the 18S rRNA, for which samples were diluted 1:1,200 in water. qPCRs were performed on a Bio-Rad CFX96 instrument. A typical qPCR mixture (10 μl) contained 13.5 ng of cDNA (32 pg when the qPCR was for 18S rRNA), a specific pair of primers (150 nM final concentration), and the SYBR premix Ex Taq (RR420A; TaKaRa). For all qPCRs, 40 cycles were performed using the following cycling conditions: denaturation at 95°C for 10 s, annealing at 59°C for 20 s, and extension at 72°C for 20 s. The relative expression ratio (rER) was calculated using the threshold cycle (2^−ΔΔCT) method ([42]) using the expression level of the 18S rRNA as an internal reference.

[1] = Fluorescence-based competition assay using FluoZin-3 (compound-Zn2+ dissociation constant); type: binding; conditions: FluoZin-3 competition, PBS pH 7.4, room temperature; read-out: Compound-Zn^2+ KD
Method: The dissociation constant (Kd) of zinc to zinc-attenuating compounds was determined at room temperature using FluoZin-3 (F24194; […] Testing buffer consisted of PBS (pH 7.4) with 200 nM ZnCl2 and 500 nM FluoZin-3. In a microtiter plate, 98 μl of testing buffer was mixed with 2 μl of compound at a range of concentrations to determine the half-maximal inhibitory concentration (IC50). Testing plates were incubated for 2 min before being read at an excitation wavelength of 485 nm and an emission wavelength of 516 nm with a Fluoroskan Ascent microplate fluorometer (Thermo Fisher Scientific).

[2] = Potentiometric titration, ligand-Zn(II) complex formation; type: binding; conditions: DMSO-water (70:30, vol/vol), 0.5 eq of Zn^2+
Method: The Zn^2+-binding properties of ZAC307 and ZAC989 were further evaluated using a potentiometric assay, where pH is measured as a function of base (NaOH) added to the compound in either the absence or presence of metal. […] To determine the deprotonation constant, a solution of 1 mM ZAC307 or ZAC989 was titrated with 0.3 M NaOH at constant ionic strength (Fig. 2A and B). In a second run, the same titration was performed in the presence of 0.5 eq of Zn^2+ for ZAC307 and ZAC989. A shift in the pH curve in the presence of the metal (ZAC307, 0.5 eq of Zn^2+ [Fig. 2A]) compared to the absence of the metal (ZAC307 [Fig. 2A]) indicates binding of Zn^2+ to the compound. The measured pH data were analyzed with the Hyperquad program suite, taking into account all relevant equilibrium constants, including also the constants for metal hydroxylation. The analysis provides the pKa values and metal complex stability constants, as well as ligand-metal complex speciation calculation, indicating how many ZAC molecules are involved in coordinating the Zn^2+ ion at different pH values. […] ZAC989 bound copper with the formation constants log β1, log β2, and log β3 of 7.83, 13.37, and 20.62, respectively. The most dominant ZAC989-copper stoichiometry was a 3:1 stoichiometry (Fig. 2E).
Potentiometric measurements were carried out in DMSO-water (70:30, vol/vol) at 25°C as described previously ([22]). Titrations were performed with a pH meter (Denver Instruments) utilizing a glass electrode with AgCl reference filled with 3.0 M KCl. The electrode was equilibrated in DMSO-water (70:30, vol/vol) for at least 1 h before use. All experiments were performed at a constant ionic strength (0.1 M NaClO4). Three milliliters of a solution containing 1 mM compound was titrated with 0.3 M NaOH by manual additions in 1- to 5-μl increments with magnetic stirring. The metal-ligand binding constants were obtained from titrations of the metal complex solutions prepared in a 1:2 metal-to-ligand ratio. The titration data were refined by the nonlinear least-squares refinement program Hyperquad2013 ([37]) to determine the deprotonation and stability constants.

SMILES | expression of the ZafA target genes (ZafA target genes) | Kd [1] [nM] | expression levels of the genes not regulated by ZafA (ZafA target genes) | formation constant log β1 (1:1 ligand-Zn(II) complex) [2] | formation constant log β2 (2:1 ligand-Zn(II) complex) [2] | formation constant log β3 (3:1 ligand-Zn(II) complex) [2]
O=C(O)CN(CCN(CC(=O)O)CC(=O)O)CC(=O)O [EDTA] | upregulation of the most direct ZafA target genes | < 10 | – | – | – | –
Cc1cc(O)n(-c2cc(N3CC[C@H](Oc4cnccc4C#N)C3)ncn2)n1 [ZAC989, 3-[(3S)-1-[6-(5-hydroxy-3-methyl-pyrazol-1-yl)pyrimidin-4-yl]pyrrolidin-3-yl]oxy-pyridine-4-carbonitrile] | inhibited the expression of the ZafA target genes | 13 | did not have a noticeable effect | 7.35 | 14.30 | 19.71
c1ccc(CN(CCN(Cc2ccccn2)Cc2ccccn2)Cc2ccccn2)nc1 [TPEN, N,N,N’,N’-tetrakis(2-pyridylmethyl)-ethylenediamine] | higher expression of the ZafA target genes than attained with EDTA | < 10 | – | – | – | –
CN(C)c1cc(-n2nc(-c3ccccc3)cc2O)ncn1 [ZAC307, 2-[6-(dimethylamino)pyrimidin-4-yl]-5-phenyl-pyrazol-3-ol] | inhibited the expression of the ZafA target genes | 71 | reduced expression levels for most of the investigated genes that were not regulated by ZafA | 7.47 | 13.27 | 18.14
